The numbers were not newly measured in patent US20020095197A1, “Application of photochemotherapy for the treatment of cardiac arrhythmias” (priority 2000, published 2002), which cites them from elsewhere.

The data set deals with vascular wall (adventitia, media, intima). The conditions noted are these: photochemotherapy with Photofrin applied; literature report (Gonschior et al. 1997).

As to porfimer sodium [Photofrin], the “inflammatory cells in vessel wall layers following vascular trauma” value is given as “presence of inflammatory cells in the adventitia (outermost layers), but not in the media or intima”.
